In patent US20160022701A1, “NEUROACTIVE STEROIDS, COMPOSITIONS, AND USES THEREOF” (SAGE THERAPEUTICS, INC., priority 2013, published 2016):

Molecular target: T1, NMDA receptor (GRIN1/GRIN2A subunits) (Homo sapiens, UniProt Q05586+Q12879)
T1 construct: expressed in transfected cells; host or cells: HEK 293 cells, stably transfected with GRIN1 and transiently transfected with GRIN2A and CD8
Assay: NMDA potentiation, whole-cell patch-clamp in HEK cells
Format: cell-based
Details: currents evoked by 30 μM NMDA and 5.0 μM Glycine, holding potential −80 mV; for activation at 0.1 µM: HEK293, compound 0.1 uM, read-out: NMDA 1a2A (%) Potentiation 0.1 uM; for activation at 1 µM: HEK293, compound 1 uM, read-out: NMDA 1a2A (%) Potentiation 1 uM

T1 sequence (Q12879 23-1464, other chains not shown): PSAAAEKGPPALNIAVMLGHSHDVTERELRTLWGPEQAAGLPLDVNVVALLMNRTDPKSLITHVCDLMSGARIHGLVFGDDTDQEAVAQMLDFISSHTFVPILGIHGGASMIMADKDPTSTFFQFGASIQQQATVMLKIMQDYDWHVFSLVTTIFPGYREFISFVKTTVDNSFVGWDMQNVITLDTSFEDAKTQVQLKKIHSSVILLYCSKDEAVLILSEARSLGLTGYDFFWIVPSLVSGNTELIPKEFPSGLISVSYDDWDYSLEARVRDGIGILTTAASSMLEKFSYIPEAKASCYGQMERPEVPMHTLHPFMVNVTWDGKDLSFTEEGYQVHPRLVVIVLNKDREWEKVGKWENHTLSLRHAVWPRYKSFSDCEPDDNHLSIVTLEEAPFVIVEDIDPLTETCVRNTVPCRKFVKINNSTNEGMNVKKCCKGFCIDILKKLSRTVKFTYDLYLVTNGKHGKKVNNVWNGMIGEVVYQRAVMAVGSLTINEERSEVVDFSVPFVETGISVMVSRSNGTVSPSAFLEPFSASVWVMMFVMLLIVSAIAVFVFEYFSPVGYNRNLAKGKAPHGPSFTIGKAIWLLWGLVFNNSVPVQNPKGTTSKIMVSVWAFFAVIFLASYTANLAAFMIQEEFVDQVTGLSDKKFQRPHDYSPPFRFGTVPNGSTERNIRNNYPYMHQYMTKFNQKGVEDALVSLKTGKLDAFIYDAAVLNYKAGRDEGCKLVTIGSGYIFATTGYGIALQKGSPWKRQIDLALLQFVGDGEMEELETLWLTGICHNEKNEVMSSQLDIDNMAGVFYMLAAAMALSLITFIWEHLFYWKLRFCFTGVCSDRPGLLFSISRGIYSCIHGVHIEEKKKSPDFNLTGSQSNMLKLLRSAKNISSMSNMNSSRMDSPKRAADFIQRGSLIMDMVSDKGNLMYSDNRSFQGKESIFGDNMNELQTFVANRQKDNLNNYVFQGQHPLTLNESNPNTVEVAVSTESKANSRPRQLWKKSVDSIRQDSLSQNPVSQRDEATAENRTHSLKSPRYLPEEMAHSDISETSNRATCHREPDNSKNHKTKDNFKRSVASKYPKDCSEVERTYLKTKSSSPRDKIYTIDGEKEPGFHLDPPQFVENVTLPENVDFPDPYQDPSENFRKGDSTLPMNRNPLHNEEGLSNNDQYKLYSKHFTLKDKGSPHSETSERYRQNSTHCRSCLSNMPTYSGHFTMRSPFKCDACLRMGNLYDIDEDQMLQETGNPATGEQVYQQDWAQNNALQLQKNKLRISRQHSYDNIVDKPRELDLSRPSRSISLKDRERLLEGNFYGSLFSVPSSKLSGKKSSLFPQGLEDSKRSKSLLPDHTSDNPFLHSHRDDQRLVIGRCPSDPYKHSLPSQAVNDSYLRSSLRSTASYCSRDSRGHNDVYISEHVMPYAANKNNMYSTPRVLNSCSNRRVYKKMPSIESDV

## C[C@H](CCC(C)(C)O)[C@H]1CC[C@H]2[C@@H]3CC=C4C[C@@](C)(O)CC[C@]4(C)[C@H]3CC[C@]12C
  activation at 0.1 µM: 128%
  activation at 1 µM: 348%

## C[C@H](CCC(C)(C)O)[C@H]1CC[C@H]2[C@@H]3CC=C4C[C@@H](O)CC[C@@H]4[C@H]3CC[C@]12C
  activation at 0.1 µM: 28%
  activation at 1 µM: 66%

## C[C@H](CCC1(O)CC1)[C@H]1CC[C@H]2[C@@H]3CC=C4C[C@@H](O)CC[C@]4(C)[C@H]3CC[C@]12C
  activation at 0.1 µM: 74%
  activation at 1 µM: 171%

## C[C@H](CC(F)(F)CO)[C@H]1CC[C@H]2[C@@H]3CC=C4C[C@@H](O)CC[C@]4(C)[C@H]3CC[C@]12C
  activation at 0.1 µM: 31%
  activation at 1 µM: 95%

## C[C@H](CCCO)[C@H]1CC[C@H]2[C@@H]3CC=C4C[C@@H](O)CC[C@]4(C)[C@H]3CC[C@]12C
  activation at 0.1 µM: 39%
  activation at 1 µM: 127%

## C[C@H](CCC(C)(C)O)[C@H]1CC[C@H]2[C@@H]3CC[C@H]4C[C@@H](O)CC[C@@H]4[C@H]3CC[C@]12C
  activation at 0.1 µM: 19%
  activation at 1 µM: 44%

## C[C@@H]([C@H]1CC[C@H]2[C@@H]3CC=C4C[C@@H](O)CC[C@]4(C)[C@H]3CC[C@]12C)C(C)(C)O
  activation at 0.1 µM: 4%
  activation at 1 µM: 24%

## CC(O)CC[C@@H](C)[C@H]1CC[C@H]2[C@@H]3CC=C4C[C@@H](O)CC[C@]4(C)[C@H]3CC[C@]12C (stereo partly drawn)
  activation at 0.1 µM: 42%
  activation at 1 µM: 98%

## C[C@H](CCC(C)(C)O)[C@H]1CC[C@H]2[C@@H]3CC=C4C[C@](C)(O)CC[C@]4(C)[C@H]3CC[C@]12C
  activation at 0.1 µM: 13%
  activation at 1 µM: 60%

## C[C@H](CCC(C)(C)N)[C@H]1CC[C@H]2[C@@H]3CC=C4C[C@@H](O)CC[C@]4(C)[C@H]3CC[C@]12C
  activation at 0.1 µM: -8%
  activation at 1 µM: -19%

## CC[C@]1(O)CC[C@@]2(C)C(=CC[C@H]3[C@@H]4CC[C@H]([C@H](C)CCC(C)(C)O)[C@@]4(C)CC[C@@H]32)C1
  activation at 0.1 µM: 181%
  activation at 1 µM: 286%

## CC[C@@]1(O)CC[C@@]2(C)C(=CC[C@H]3[C@@H]4CC[C@H]([C@H](C)CCC(C)(C)O)[C@@]4(C)CC[C@@H]32)C1
  activation at 0.1 µM: 23%
  activation at 1 µM: 139%

## CNC(C)(C)CC[C@@H](C)[C@H]1CC[C@H]2[C@@H]3CC=C4C[C@@H](O)CC[C@]4(C)[C@H]3CC[C@]12C
  activation at 0.1 µM: 25%
  activation at 1 µM: 19%

## C[C@H](CCC(C)(C)O)[C@H]1CC[C@H]2[C@@H]3CC[C@H]4C[C@@](C)(O)CC[C@@H]4[C@H]3CC[C@]12C
  activation at 0.1 µM: 25%
  activation at 1 µM: 114%

## C[C@H](CCC(C)(C)O)[C@H]1CC[C@H]2[C@@H]3CC[C@H]4C[C@](C)(O)CC[C@@H]4[C@H]3CC[C@]12C
  activation at 0.1 µM: 21%
  activation at 1 µM: 52%

## C[C@H](CCC(C)(C)O)[C@H]1CC[C@H]2[C@@H]3CC[C@H]4C[C@](O)(C(F)(F)F)CC[C@@H]4[C@H]3CC[C@]12C
  activation at 0.1 µM: 14%
  activation at 1 µM: 85%

## C[C@H](CCC(C)(C)O)[C@H]1CC[C@H]2[C@@H]3CC[C@H]4C[C@@H](O)CC[C@]4(C)[C@H]3CC[C@]12C
  activation at 0.1 µM: 18%
  activation at 1 µM: 85%

## C[C@H](CCC(C)(C)O)[C@H]1CC[C@H]2[C@@H]3CC[C@H]4C[C@](O)(C(F)(F)F)CC[C@]4(C)[C@H]3CC[C@]12C
  activation at 0.1 µM: 59%
  activation at 1 µM: 172%

## C[C@H](CCC(C)(C)O)[C@H]1CC[C@H]2[C@@H]3CC[C@H]4C[C@](C)(O)CC[C@]4(C)[C@H]3CC[C@]12C
  activation at 0.1 µM: 19%
  activation at 1 µM: 30%

## C[C@H](CCC(C)(C)O)[C@H]1CC[C@H]2[C@@H]3CC[C@H]4C[C@@](C)(O)CC[C@]4(C)[C@H]3CC[C@]12C
  activation at 0.1 µM: 87%

## C[C@H](CC(C)(C)O)[C@H]1CC[C@H]2[C@@H]3CC=C4C[C@@H](O)CC[C@]4(C)[C@H]3CC[C@]12C
  activation at 0.1 µM: -5%
  activation at 1 µM: 27%

## CC(C)[C@H](O)CC[C@@H](C)[C@H]1CC[C@H]2[C@@H]3CC=C4C[C@@H](O)CC[C@]4(C)[C@H]3CC[C@]12C
  activation at 0.1 µM: 82%
  activation at 1 µM: 137%

## C[C@H](CCC(C)(C)O)[C@H]1CC[C@H]2[C@@H]3CC[C@@H]4C[C@@](O)(C(F)(F)F)CC[C@]4(C)[C@H]3CC[C@]12C
  activation at 0.1 µM: 9%
  activation at 1 µM: 18%

## COC[C@@]1(O)CC[C@@]2(C)[C@@H](CC[C@@H]3[C@@H]2CC[C@]2(C)[C@@H]([C@H](C)CCC(C)(C)O)CC[C@@H]32)C1
  activation at 0.1 µM: 8%
  activation at 1 µM: 25%

## COC[C@]1(O)CC[C@@]2(C)[C@@H](CC[C@@H]3[C@@H]2CC[C@]2(C)[C@@H]([C@H](C)CCC(C)(C)O)CC[C@@H]32)C1
  activation at 0.1 µM: 14%
  activation at 1 µM: 110%

## CC(C)(O)CCC[C@H]1CCC2C3CC[C@H]4C[C@@](C)(O)CC[C@]4(C)C3CC[C@@]21C (stereo partly drawn)
  activation at 0.1 µM: 17%
  activation at 1 µM: 105%

## CC(C)(O)CCO[C@H]1CCC2C3CC[C@H]4C[C@@](C)(O)CC[C@]4(C)C3CC[C@@]21C (stereo partly drawn)
  activation at 0.1 µM: 6%
  activation at 1 µM: 27%

## CC(C)(O)COC[C@H]1CCC2C3CC=C4C[C@@](C)(O)CC[C@]4(C)C3CC[C@@]21C (stereo partly drawn)
  activation at 0.1 µM: -5%
  activation at 1 µM: -14%

## CC(CCC(C)(C)O)[C@H]1CC[C@H]2[C@@H]3CC=C4C[C@@H](O)CC[C@]4(C)[C@H]3CC[C@]12C (stereo partly drawn) [Compound 1]
  activation at 0.1 µM: 55%
  activation at 1 µM: 197%
